According to patent US8592422B2, “Bicyclic triazole and pyrazole lactams as allosteric modulators of mGluR5 receptors” (Vanderbilt University, priority 2010, dated 2013):

Tested on: male Sprague-Dawley rats
Assay: Reversal of amphetamine-induced hyperlocomotion
Type: in vivo, rat
Conditions: oral gavage, doses per FIG. 4; amphetamine 1 mg/kg sc
Description: Locomotor activity was assessed as mean distance traveled (cm) in standard 16×16 photocell testing chambers measuring 43.2 cm (Length)×43.2 cm (Width)×30.5 cm (Height) (Med Associates, St. Albans, Vt.). Animals were habituated to individual activity chambers for at least 30 min prior to drug administration. Following administration of drug or vehicle, activity was recorded for a 90 minute time period. Data was expressed as the mean (±SEM) distance traveled recorded in 5 min intervals over the test period. The data was analyzed using repeated measures analysis of variance (ANOVA) followed by post-hoc testing using Dunnett's test, when appropriate. A difference was considered significant when p≦0.05. […]
The animals were habituated in Smart Open Field locomotor activity test chambers (Hamilton-Kinder, San Diego, Calif.) with 16×16 photobeams to automatically record locomotor activity for 30 min and then dosed with vehicle or test compound. […] At 60 min, all rats were injected subcutaneously with 1 mg/kg amphetamine or vehicle and then monitored for an additional 60 min. Animals are monitored for a total of 120 minutes. Data are expressed as changes in ambulation defined as total number of beam breaks per 5 min periods.
The data for the dose-response studies were analyzed by a between-group analysis of variance. […]

O=C1c2cc(COc3ccccc3)nn2CCN1c1ccc(F)cn1
reversal of amphetamine-induced hyperlocomotion: reversal of amphetamine-induced hyperlocomotion
